The values below come from patent EP2642290A1, “Glatiramer acetate human monocytic cell line-based potency assay” (Synthon BV, priority 2012, dated 2013).

Assay [1] concerns THP-1 cells. As to the kind of experiment: Human monocytic cell line-based potency assay: sIL-1Ra expression (ELISA) in THP-1 cells stimulated with PMA and LPS and exposed to glatiramer acetate. On the procedure: Human monocytic cells are brought into a suitable medium, e.g. RPMI 1640 medium, and are stimulated with an effective amount of PMA and LPS, contacted with GA (0-250 μg/ml) and the effect on the expression of a monocyte anti-inflammatory cytokine, such as sIL-1Ra, is measured. […] Dose-response curves are generated by GA activation of monocytic cells and EC50 values are calculated using a non-linear four-parameter logistic model on semi-log transformed data, as described in the draft USP chapter <1034> on analysis of biological assays.
• THP-1 cells are harvested and centrifugated at 200g for 5 minutes; • Resuspend the pellet in 10 ml fresh pre-warmed RPMI-1640+10% FBS+2mM L-Glutamine; • Take a sample for cell counting; • After cell count adjust the cell density to 5 x 10^5 cells/ml and add 100 μl of the THP-1 cell suspension to the wells of a 96-wellsplate (Corning Costar #3596); • Fill the boundary wells of the plate with CGM and place the plate temporally into a humidified incubator at 37 ± 1 °C and 5.0 ± 1% CO2.
• In the dilution plate prepare the glatiramer acetate dilution series. The stock concentration is 20 mg/ml, which needs to be diluted in a 96-wellsplate to a working stock concentration of 1.2 mg/ml for the highest dilution on the dilution plate; • Pipette 75 μl RPMI-1640+10% FBS in column 2-8 (row B-G) of the dilution plate and pipette 235 μl RPMI-1640+10% FBS in column 9 (row B-G). Note: Other wells of the dilution 96-wellsplate remain unused; • Add 15 μl of reference glatiramer acetate and the test sample of glatiramer acetate (20 mg/ml) into column 9 (row B-G) of the dilution plate, giving a new concentration of 1.2 mg/ml; • Serially dilute 150 μl down, from column 9 to 2. Mix at each step by pipetting up and down 5 times; • Add 50 μl of the LPS/PMA working solution to the cell plate, with exception of the boundary wells.The final concentrations are 25 ng/ml LPS and 5 ng/ml PMA; • Add 50 μl of the glatiramer acetate dilutions to the plate containing the cells and the LPS and PMA working solution. The final dose-range of glatiramer acetate is between 12.5 and 250 μg/ml; • Incubate cells for 72 hours at 37°C in an incubator with 5% CO2, 93% humidity.
• After 72 hours of incubation centrifuge the 96-well plate at 200g for 5 minutes. • Transfer 150 μl of the cell-free supernatant/well to a storage plate. • Supernatant of the samples will be used for analysis by IL-1Ra/Il-1F3 ELISA. • sIL-1Ra is determined using the sIL-1Ra ELISA kit from Quantikine, R&D, Minneapolis, MN (Cat # DRAOOB) following the manufacturer's instructions. The remainder of the supernatant is stored in a closed storage plate at -80°C.
Data on sIL-1Ra concentration are analyzed for relative potency as described in draft USP chapter <1034> section 3.4 on nonlinear models for quantitative responses. The software package GraphPad Prism (5.x) is used for fitting to a nonlinear model to the data: • sIL-1Ra data (in pg/ml) are plotted against the log transformed glatiramer acetate concentration (in log μg/ml); • A four-parameter logistic model is constructed to fit the dose response curves of the Reference (Ref) and the test batch (TA). […]
In general terms: ELISA stands for enzyme-linked immunosorbent assay.

The subject of assay [2] is THP-1 cells. Described as above. The following applies: THP-1 cells treated with PMA alone or LPS alone instead of the combination.

Values joined by “and” are separate entries in the source; they are usually repeats but may differ in a detail not shown here. Equal values may be shown once.

glatiramer acetate registered a Bottom with THP-1 cells [1] (bottom asymptote of constrained four-parameter logistic fit of sIL-1Ra response (sIL-1Ra data in pg/ml), 5 ng/ml PMA and 25 ng/ml LPS, 72 hours, four independent curves A-D of the same material, common value) of -4031. Moreover, the “Relative potency (%)” value with THP-1 cells [1] (relative to curve A, arbitrarily set at 100%, all curves are 100% samples of the same material, curves A-D) was 100.0% and 128.5% and 118.5% and 107.7%. For the same substance, the EC50 with THP-1 cells [1] (sIL-1Ra response, glatiramer acetate concentration in μg/ml, 5 ng/ml PMA and 25 ng/ml LPS, 72 hours, four independent curves A-D of the same material, in µg/mL) was 42.05 and 54.02 and 49.84 and 45.28. This substance also displayed a Slope in the assay with THP-1 cells [1] (slope of constrained four-parameter logistic fit of sIL-1Ra response, 5 ng/ml PMA and 25 ng/ml LPS, curves A-D, common value) of 3.306. For the same substance, the Top in the assay on THP-1 cells [1] (top asymptote of constrained four-parameter logistic fit of sIL-1Ra response (sIL-1Ra data in pg/ml), 5 ng/ml PMA and 25 ng/ml LPS, 72 hours, curves A-D, common value) is reported as 53602. Besides, the GA-induced cytokine expression entry in the assay with THP-1 cells [2] was “neither PMA nor LPS treatment of THP-1 cells alone results in GA-induced cytokine expression”.
